# Laboratory results as given in patent publication US7261906B2, “Anti-cancer therapy agent of arsenic hexoxide (As4O6) of a natural chemical substance and its pharmaceutical composition” (priority 1998, dated 2007).
# System: N-nitrosodiethylamine (NDEA)-induced tumors in lung and liver
# Assay: Carcinogen-induced oncogenesis in liver and lung
# Format: in vivo, mouse (B6C3F1 strain)
# Conditions: for incidence of NDEA-induced hepatic tumor (words): oral HD-2, FIG. 6
# Protocol: To examine the inhibitory effect of HD-2 on carcinogen-induced oncogenesis, N-nitrosodiethylamine (NDEA) was injected as a carcinogen into peritoneal cavity of mouse (B6C3F1 strain) at a concentration of 90 mg per kg body weight to induce cancer. At 2, 4, 8, 16, and 32 weeks after carcinogen injection, […] of HD-2 was administered orally and the same amount of distilled water was injected into control group. Forty-two weeks after NDEA treatment, mice were sacrificed to measure the incidence and the size of tumors formed in lung and liver. […] The incidence of NDEA-induced hepatic tumor was above 90%, but following HD-2 administration, the incidence was lowered to 5 to 22%, despite of variation depending on the period of HD-2 administration. Thus HD-2 inhibited carcinogen-induced oncogenesis in liver by 78 to 95. […] In lung, the inhibitory effect of HD-2 on reducing carcinogen-induced oncogenesis was not so dramatic as in liver. However, if HD-2 was given at 4 weeks after NDEA injection, carcinogen-induced oncogenesis was inhibited by 30%.
smiles,measurement,setting,value
"O1[As]2O[As]3O[As]1O[As](O2)O3 [HD-2, arsenic hexoxide (As4O6)]",incidence of NDEA-induced lung cancer,FIG. 7,decreases the incidence of lung cancer
same,inhibition of carcinogen-induced oncogenesis in lung,HD-2 given at 4 weeks after NDEA injection,30%
same,number of tumor masses in lung,"HD-2 group, FIG. 7",about 2
same,spontaneous cancers of lung,oral HD-2,completely suppressed
same,spontaneous hepatoma,oral HD-2,inhibited spontaneous hepatoma completely
same,incidence of NDEA-induced hepatic tumor (words),,effectively inhibited
same,incidence of NDEA-induced hepatic tumor (words),listed as As4O6,decreases hepatoma incidence
